Values of other authors as cited in patent publication US20100047273A1, “Coxsackie B virus and type 1 diabetes” (priority 2007, published 2010).

Tested on: coxsackie B4 virus
Details: reported in references 4 and 5

Cc1cc(CCCOc2c(C)cc(-c3noc(C(F)(F)F)n3)cc2C)on1 [pleconaril]
activity against coxsackie B4 virus: active
